Assay results reported in paper doi:10.1101/2023.10.20.563248v1 (biorxiv, 2023).

Key:
Details in all cases: 1 µM; inhibitor
[1] = target: RPS6KB1 (Homo sapiens, UniProt P23443)
[2] = target: SLK (Homo sapiens, UniProt Q9H2G2)
[3] = target: PDGFRb (Homo sapiens, UniProt P09619)
[4] = target: DDR2 (Homo sapiens, UniProt Q16832)
[5] = target: PDK1 (Homo sapiens, UniProt O15530)
[6] = target: PLK3 (Homo sapiens, UniProt Q9H4B4)
[7] = target: MAPKAPK2 (Homo sapiens, UniProt P49137)
[8] = target: MARK1 (Homo sapiens, UniProt Q9P0L2)
[9] = target: MAP4K5 (Homo sapiens, UniProt Q9Y4K4)
MAP4K5, sequence (Q9Y4K4 whole entry): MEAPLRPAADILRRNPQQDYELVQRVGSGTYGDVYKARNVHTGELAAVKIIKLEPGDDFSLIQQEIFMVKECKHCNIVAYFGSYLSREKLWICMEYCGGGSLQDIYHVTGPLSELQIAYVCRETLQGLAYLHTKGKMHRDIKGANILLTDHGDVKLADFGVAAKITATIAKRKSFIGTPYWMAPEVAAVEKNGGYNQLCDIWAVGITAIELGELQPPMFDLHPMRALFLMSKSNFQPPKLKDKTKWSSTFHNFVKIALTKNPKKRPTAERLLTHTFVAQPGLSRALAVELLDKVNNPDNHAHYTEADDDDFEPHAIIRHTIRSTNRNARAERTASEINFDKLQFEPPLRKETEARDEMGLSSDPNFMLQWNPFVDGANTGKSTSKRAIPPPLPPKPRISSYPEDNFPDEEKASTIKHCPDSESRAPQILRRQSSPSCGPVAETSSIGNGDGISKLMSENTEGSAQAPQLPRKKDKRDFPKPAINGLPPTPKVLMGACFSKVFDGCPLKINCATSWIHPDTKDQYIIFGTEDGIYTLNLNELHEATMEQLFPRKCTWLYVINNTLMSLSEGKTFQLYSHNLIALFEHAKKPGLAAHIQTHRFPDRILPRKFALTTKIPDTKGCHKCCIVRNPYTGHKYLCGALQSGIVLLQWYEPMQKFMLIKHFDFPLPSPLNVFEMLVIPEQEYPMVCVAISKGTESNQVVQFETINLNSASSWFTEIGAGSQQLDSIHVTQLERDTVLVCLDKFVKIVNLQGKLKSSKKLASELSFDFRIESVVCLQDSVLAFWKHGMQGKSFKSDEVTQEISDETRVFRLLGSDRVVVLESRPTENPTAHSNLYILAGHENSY

[10] = target: SRC (Homo sapiens, UniProt P12931)
[11] = target: ULK2 (Homo sapiens, UniProt Q8IYT8)
ULK2, sequence (Q8IYT8 whole entry): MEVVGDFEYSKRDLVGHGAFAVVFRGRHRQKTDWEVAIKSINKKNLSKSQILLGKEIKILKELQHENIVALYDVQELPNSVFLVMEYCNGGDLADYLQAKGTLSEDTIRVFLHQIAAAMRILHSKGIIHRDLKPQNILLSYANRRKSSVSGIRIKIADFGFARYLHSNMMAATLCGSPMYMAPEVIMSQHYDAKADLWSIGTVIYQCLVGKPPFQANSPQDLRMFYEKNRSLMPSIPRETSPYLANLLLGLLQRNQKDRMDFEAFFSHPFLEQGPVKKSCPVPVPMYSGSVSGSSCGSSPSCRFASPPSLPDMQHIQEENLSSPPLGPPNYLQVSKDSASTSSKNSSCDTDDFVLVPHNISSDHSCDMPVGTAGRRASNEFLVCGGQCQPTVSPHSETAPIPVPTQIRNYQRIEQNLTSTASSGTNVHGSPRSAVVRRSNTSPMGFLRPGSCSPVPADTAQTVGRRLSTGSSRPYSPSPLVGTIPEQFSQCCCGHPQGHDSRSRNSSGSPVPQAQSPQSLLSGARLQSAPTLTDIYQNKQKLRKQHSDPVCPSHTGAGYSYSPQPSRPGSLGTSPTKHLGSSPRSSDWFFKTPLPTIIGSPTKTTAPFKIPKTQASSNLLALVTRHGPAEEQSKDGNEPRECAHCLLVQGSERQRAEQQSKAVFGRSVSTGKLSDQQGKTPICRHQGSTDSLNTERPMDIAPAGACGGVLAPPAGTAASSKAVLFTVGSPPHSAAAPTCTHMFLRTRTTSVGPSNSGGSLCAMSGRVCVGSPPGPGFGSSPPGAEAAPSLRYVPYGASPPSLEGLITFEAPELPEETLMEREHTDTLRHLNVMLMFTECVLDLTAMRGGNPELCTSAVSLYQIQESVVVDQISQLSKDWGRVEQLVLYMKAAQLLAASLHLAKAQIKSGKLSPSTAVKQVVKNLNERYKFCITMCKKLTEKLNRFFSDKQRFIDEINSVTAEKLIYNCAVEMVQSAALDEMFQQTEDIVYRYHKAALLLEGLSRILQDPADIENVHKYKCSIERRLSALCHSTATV

[12] = target: MASTL (Homo sapiens, UniProt Q96GX5)
[13] = target: CDK9 (Homo sapiens, UniProt P50750)
[14] = target: LCK (Homo sapiens, UniProt P06239)
[15] = target: ERK1 (Homo sapiens, UniProt P27361)
[16] = target: PRKD2 (Homo sapiens, UniProt Q9BZL6)
PRKD2, sequence (Q9BZL6 whole entry): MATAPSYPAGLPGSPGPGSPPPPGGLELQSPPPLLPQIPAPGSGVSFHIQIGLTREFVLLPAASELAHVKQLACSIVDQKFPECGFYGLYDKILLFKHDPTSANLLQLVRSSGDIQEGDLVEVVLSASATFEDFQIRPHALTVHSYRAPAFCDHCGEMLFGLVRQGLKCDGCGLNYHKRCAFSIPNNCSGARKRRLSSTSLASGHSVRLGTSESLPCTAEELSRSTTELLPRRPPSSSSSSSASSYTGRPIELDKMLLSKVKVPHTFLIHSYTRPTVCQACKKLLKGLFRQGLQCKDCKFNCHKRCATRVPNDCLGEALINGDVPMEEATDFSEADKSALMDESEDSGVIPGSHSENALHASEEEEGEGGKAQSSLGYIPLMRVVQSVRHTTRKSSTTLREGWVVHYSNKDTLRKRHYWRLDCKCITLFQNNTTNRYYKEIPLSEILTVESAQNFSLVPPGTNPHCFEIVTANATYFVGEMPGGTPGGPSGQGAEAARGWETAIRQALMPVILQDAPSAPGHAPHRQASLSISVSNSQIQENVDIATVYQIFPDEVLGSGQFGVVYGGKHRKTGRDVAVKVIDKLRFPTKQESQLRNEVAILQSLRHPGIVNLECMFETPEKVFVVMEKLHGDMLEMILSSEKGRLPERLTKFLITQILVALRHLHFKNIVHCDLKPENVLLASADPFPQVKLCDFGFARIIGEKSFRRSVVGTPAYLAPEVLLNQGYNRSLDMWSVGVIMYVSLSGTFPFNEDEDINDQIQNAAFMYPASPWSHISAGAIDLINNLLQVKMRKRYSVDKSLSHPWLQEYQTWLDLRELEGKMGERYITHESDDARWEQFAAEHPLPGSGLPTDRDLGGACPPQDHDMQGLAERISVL

[17] = target: DYRK3 (Homo sapiens, UniProt O43781)
[18] = target: NEK9 (Homo sapiens, UniProt Q8TD19)
[19] = target: PIM3 (Homo sapiens, UniProt Q86V86)
[20] = target: TRKB (Homo sapiens, UniProt Q16620)
[21] = target: EPHA6 (Homo sapiens, UniProt Q9UF33)
[22] = target: GSK3B (Homo sapiens, UniProt P49841)
GSK3B, sequence (P49841 whole entry): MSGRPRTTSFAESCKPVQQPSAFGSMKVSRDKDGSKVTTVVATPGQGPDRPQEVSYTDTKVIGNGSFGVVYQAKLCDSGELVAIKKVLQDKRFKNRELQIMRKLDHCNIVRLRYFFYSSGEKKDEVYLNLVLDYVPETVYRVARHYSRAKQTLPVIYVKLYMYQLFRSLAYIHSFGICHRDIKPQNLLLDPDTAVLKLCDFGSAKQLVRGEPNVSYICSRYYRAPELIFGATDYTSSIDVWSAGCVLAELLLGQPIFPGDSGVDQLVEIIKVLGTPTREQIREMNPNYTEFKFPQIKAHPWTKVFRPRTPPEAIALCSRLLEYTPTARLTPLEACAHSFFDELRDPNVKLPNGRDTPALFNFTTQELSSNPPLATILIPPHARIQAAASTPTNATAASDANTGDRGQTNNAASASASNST

[23] = target: MINK1 (Homo sapiens, UniProt Q8N4C8)
[24] = target: FGFR1 (Homo sapiens, UniProt P11362)
[25] = target: PIM2 (Homo sapiens, UniProt Q9P1W9)
[26] = target: PAK1 (Homo sapiens, UniProt Q13153)
[27] = target: CDK1/CycA2 (Homo sapiens, UniProt P06493)
[28] = target: JNK3 (Homo sapiens, UniProt P53779)
JNK3, sequence (P53779 whole entry): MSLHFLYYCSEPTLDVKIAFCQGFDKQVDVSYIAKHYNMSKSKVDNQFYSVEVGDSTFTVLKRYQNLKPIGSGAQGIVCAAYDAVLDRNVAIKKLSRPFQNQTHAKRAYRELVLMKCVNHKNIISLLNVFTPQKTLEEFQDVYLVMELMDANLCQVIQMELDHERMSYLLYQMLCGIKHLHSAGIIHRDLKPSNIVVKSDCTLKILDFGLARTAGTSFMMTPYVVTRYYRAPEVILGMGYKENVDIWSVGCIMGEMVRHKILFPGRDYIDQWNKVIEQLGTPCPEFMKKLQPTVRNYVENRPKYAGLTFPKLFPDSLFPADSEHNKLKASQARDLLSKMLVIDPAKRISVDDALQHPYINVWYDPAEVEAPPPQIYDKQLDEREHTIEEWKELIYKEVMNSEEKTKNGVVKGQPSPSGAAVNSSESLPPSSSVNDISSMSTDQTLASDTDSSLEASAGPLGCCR

[29] = target: CK2a2 (Homo sapiens, UniProt P19784)
[30] = target: PKA (Homo sapiens, UniProt P17612)
[31] = target: AXL (Homo sapiens, UniProt P30530)
AXL, sequence (P30530 whole entry): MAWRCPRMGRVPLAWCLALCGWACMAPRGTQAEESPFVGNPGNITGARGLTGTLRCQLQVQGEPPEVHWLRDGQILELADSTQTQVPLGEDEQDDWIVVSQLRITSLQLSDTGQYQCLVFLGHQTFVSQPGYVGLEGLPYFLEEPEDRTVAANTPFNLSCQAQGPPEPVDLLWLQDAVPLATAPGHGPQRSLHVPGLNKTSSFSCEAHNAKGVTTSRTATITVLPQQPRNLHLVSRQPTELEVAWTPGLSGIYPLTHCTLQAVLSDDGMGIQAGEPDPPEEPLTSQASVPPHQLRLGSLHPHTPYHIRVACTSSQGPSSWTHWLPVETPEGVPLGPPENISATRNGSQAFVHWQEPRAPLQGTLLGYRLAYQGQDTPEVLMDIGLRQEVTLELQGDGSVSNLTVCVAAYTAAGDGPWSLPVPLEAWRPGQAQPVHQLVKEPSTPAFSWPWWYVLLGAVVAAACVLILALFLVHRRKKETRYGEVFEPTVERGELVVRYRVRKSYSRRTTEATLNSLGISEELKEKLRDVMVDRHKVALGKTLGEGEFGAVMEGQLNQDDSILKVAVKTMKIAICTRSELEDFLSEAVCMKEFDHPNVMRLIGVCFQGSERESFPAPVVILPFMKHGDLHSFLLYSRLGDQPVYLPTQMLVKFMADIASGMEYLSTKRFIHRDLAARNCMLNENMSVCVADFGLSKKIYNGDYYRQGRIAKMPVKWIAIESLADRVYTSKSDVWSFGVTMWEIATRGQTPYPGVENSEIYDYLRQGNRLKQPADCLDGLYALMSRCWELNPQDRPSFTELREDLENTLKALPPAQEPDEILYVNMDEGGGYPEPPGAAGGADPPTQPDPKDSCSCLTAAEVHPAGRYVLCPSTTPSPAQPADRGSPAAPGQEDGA

RPS6KB1, sequence (P23443 whole entry): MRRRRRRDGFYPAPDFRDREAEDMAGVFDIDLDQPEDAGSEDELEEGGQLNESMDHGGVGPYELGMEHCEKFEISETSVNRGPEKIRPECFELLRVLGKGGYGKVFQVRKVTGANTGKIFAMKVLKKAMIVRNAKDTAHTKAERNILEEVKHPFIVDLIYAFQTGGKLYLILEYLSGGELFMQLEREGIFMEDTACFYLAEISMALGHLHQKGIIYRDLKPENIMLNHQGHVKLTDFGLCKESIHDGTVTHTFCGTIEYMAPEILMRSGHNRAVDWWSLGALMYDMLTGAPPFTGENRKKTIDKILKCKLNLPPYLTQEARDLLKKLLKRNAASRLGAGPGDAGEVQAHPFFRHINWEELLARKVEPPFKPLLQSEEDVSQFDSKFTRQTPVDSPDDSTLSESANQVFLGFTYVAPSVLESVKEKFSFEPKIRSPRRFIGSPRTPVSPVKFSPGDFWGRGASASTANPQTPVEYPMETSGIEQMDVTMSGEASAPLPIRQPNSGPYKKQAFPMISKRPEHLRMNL

## O=C1NCCCCCNc2nc(c3ccccc3n2)Nc2cc1[nH]n2 [21c, (Z)-3^1H-2,5,11-triaza-1(4,2)-quinazolina-3(3,5)-pyrazolacycloundecaphan-4-one]
[1]
  21c Remaining activity, percent of control [%]: 86.2%
[2]
  21c Remaining activity, percent of control [%]: 61.9%
[3]
  21c Remaining activity, percent of control [%]: 71.2%
[4]
  21c Remaining activity, percent of control [%]: 103.0%
[5]
  21c Remaining activity, percent of control [%]: 99.5%
[6]
  21c Remaining activity, percent of control [%]: 102.7%
[7]
  21c Remaining activity, percent of control [%]: 106.1%
[8]
  21c Remaining activity, percent of control [%]: 96.0%
[9]
  21c Remaining activity, percent of control [%]: 78.8%
[10]
  21c Remaining activity, percent of control [%]: 94.8%
[11]
  21c Remaining activity, percent of control [%]: 96.0%
[12]
  21c Remaining activity, percent of control [%]: 118.0%
[13]
  21c Remaining activity, percent of control [%]: 83.3%
[14]
  21c Remaining activity, percent of control [%]: 92.0%
[15]
  21c Remaining activity, percent of control [%]: 85.8%
[16]
  21c Remaining activity, percent of control [%]: 82.0%
[17]
  21c Remaining activity, percent of control [%]: 96.4%
[18]
  21c Remaining activity, percent of control [%]: 109.8%
[19]
  21c Remaining activity, percent of control [%]: 88.9%
[20]
  21c Remaining activity, percent of control [%]: 79.0%
[21]
  21c Remaining activity, percent of control [%]: 97.4%
[22]
  21c Remaining activity, percent of control [%]: 81.4%
[23]
  21c Remaining activity, percent of control [%]: 70.0%
[24]
  21c Remaining activity, percent of control [%]: 80.9%
[25]
  21c Remaining activity, percent of control [%]: 103.1%
[26]
  21c Remaining activity, percent of control [%]: 94.9%
[27]
  21c Remaining activity, percent of control [%]: 91.9%
[28]
  21c Remaining activity, percent of control [%]: 84.9%
[29]
  21c Remaining activity, percent of control [%]: 85.6%
[30]
  21c Remaining activity, percent of control [%]: 96.3%
[31]
  21c Remaining activity, percent of control [%]: 80.2%
